{
  "source": "paper PMC4466390",
  "about": "“Canonical and Noncanonical Sites Determine NPT2A Binding Selectivity to NHERF1 PDZ1” (PLoS ONE, 2015)",
  "key": {"NHERF1 PDZ2 D183E": {"biological_target": "T1, NHERF1 PDZ2 D183E (Homo sapiens, UniProt O14745, D183E)", "T1 construct": "pET16-N1P2 encoding PDZ2 (133–300) of NHERF1; inferred from pET16 vector and Ni-NTA purification; made in house; host or cells: E. coli BL21 (DE3)", "T1 sequence (O14745 133-300 D183E)": "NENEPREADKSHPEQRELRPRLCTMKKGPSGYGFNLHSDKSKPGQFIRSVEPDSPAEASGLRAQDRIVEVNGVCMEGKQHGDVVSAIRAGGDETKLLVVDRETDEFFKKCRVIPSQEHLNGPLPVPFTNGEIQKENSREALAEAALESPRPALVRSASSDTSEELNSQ", "test": "FP saturation binding, PDZ2 D183E", "conditions": "Asp183Glu PDZ2"}, "NHERF1 PDZ1 and PDZ2": {"test_system": "NHERF1 PDZ1 and PDZ2", "conditions": "PDZ1 versus PDZ2; ref [10],[14]–[16]; cited from earlier work", "excerpt": "Na^+/H^+ Exchanger Regulatory Factor-1 (NHERF1), also known as the 50-kDa ezrin-binding protein EBP50, is a multi-domain scaffolding protein that coordinates the assembly and trafficking of transmembrane receptors and ion channels. […] PDZ domains of NHERF1 recognize the X-S/T-X-ΦCOO ^- sequence of target partners (class I PDZ-binding motifs), where X is promiscuous and Φ is a hydrophobic residue. By conve ..."}, "NHERF1 PDZ1 H27N (1–120)": {"biological_target": "T2, NHERF1 PDZ1 H27N (1–120) (Homo sapiens, UniProt O14745, H27N)", "T2 construct": "PDZ1 H27N (1–120)", "T2 sequence (O14745 1-120 H27N)": "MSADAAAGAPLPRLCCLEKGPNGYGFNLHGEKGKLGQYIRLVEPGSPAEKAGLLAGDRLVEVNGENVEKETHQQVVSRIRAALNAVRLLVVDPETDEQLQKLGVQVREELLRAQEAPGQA", "test": "ITC, PDZ1 H27N (1–120)", "type": "binding", "procedure": "(§1) ITC measurements were performed with a MicroCalTM Auto-iTC200 system (GE Healthcare) at 25°C. Before measurement, samples were dialyzed overnight at 4°C in a buffer containing 10 mM Hepes (pH 7.5), 10 mM NaCl, 0.5 mM EDTA, and 0.5 mM ββ-mercaptoethanol. For determining NPT2A binding to PDZ constructs, the reaction cells were filled with 460 μl of 25 μM of the indicated PDZ protein. The ligand NPT2A (200–250 μM), was titrated into the cell in 19 injections of 2 μl each, with 150 s intervals between each injection. To remove the contribution of NPT2A dilution heat, a control experiment has been performed by titrating NPT2A into the buffer, which was then subtracted from the actual experimental data.\n(§2) The ITC data were analyzed using Microcal Origin 7.0 and the manufacturer's provided VPViewer module to yield the association constant (Ka), stoichiometry (n), and the observed enthalpy change (ΔH°) for the binding reactions. Analysis of ITC data directly yielded ΔH° and Ka. The Gibbs energy calculated using the equation: ΔG°=−RTlnKa (3)\n(§3) The entropy change was then obtained using the standard thermodynamic expression."}, "NHERF1 PDZ2 N167H/D183E": {"biological_target": "T3, NHERF1 PDZ2 N167H/D183E (Homo sapiens, UniProt O14745, D183E/N167H)", "T3 construct": "pET16-N1P2 encoding PDZ2 (133–300) of NHERF1; inferred from pET16 vector and Ni-NTA purification; made in house; host or cells: E. coli BL21 (DE3)", "T3 sequence (O14745 133-300 N167H/D183E)": "T1 sequence (O14745 133-300 D183E) with N35H", "test": "FP saturation binding, PDZ2 N167H/D183E", "conditions": "Asn167His/Asp183Glu PDZ2"}, "[1]": {"biological_target": "T4, NHERF1 PDZ1 H27N/E43D (1–120) (Homo sapiens, UniProt O14745, E43D/H27N)", "T4 construct": "PDZ1 H27N/E43D (1–120)", "T4 sequence (O14745 1-120 H27N/E43D)": "T2 sequence (O14745 1-120 H27N) with E43D", "test": "ITC, PDZ1 H27N/E43D (1–120)", "type": "binding", "procedure": "as §1, §2, §3"}, "NHERF1 PDZ1 E43D (1–120)": {"biological_target": "T5, NHERF1 PDZ1 E43D (1–120) (Homo sapiens, UniProt O14745, E43D)", "T5 construct": "PDZ1 E43D (1–120)", "T5 sequence (O14745 1-120 E43D)": "T2 sequence (O14745 1-120 H27N) with N27H, E43D", "test": "ITC, PDZ1 E43D (1–120)", "type": "binding", "procedure": "as §1, §2, §3"}, "NHERF1 PDZ1 (1–140)": {"biological_target": "T6, NHERF1 PDZ1 (1–140) (Homo sapiens, UniProt O14745)", "T6 construct": "The expression plasmids pET16-N1P1 encoding PDZ1 (1–140); inferred from pET16 vector and Ni-NTA purification; made in house; host or cells: E. coli BL21 (DE3)", "T6 sequence (O14745 1-140)": "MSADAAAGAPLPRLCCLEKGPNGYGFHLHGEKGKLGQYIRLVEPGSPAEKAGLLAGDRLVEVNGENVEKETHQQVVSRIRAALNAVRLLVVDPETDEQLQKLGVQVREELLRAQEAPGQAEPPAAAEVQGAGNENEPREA", "test": "FP saturation binding, PDZ1 (1–140)", "conditions": "acidic pH (5.5, 6.0) compared to pH 7.4"}, "NHERF1 PDZ1 (1–120)": {"biological_target": "T7, NHERF1 PDZ1 (1–120) (Homo sapiens, UniProt O14745)", "T7 construct": "PDZ1 (1–120)", "T7 sequence (O14745 1-120)": "T2 sequence (O14745 1-120 H27N) with N27H", "test": "ITC, PDZ1 (1–120)", "type": "binding", "conditions": "25°C", "procedure": "as §1, §2, §3"}},
  "note": "Positions count from the first letter of the chain named. Entries after “also recorded” stand apart in the source; their conditions may differ. Where a SMILES comes first, the peptide text is derived from it. The star is where a group is joined. X1 = CN(C)c1ccc2c(-c3ccc(C(=O)*)cc3C(=O)[O-])c3ccc(=[N+](C)C)cc-3oc2c1",
  "data": [
    {"compound": "CC(C)C[C@H](NC(=O)[C@H](CCCNC(=N)N)NC(=O)[C@@H](NC(=O)[C@H](C)NC(=O)[C@H](CC(N)=O)NC(=O)[C@H](Cc1c[nH]cn1)NC(=O)[C@H](Cc1c[nH]cn1)NC(=O)[C@H](C)NC(=O)[C@@H]1CCCN1C(=O)[C@H](CC(C)C)NC(=O)[C@H](C)NC(=O)[C@H](CC(C)C)NC(=O)[C@H](CCCNC(=N)N)NC(=O)[C@@H]1CCCN1C(=O)[C@H](CO)NC(=O)[C@@H]1CCCN1C(=O)[C@@H](NC(=O)[C@H](C)NC(=O)[C@@H]1CCCN1C(=O)[C@@H]1CCCN1C(=O)[C@H](CC(C)C)NC(=O)[C@H](CCC(=O)O)NC(=O)c1ccc(-c2c3ccc(=[N+](C)C)cc-3oc3cc(N(C)C)ccc23)c(C(=O)[O-])c1)[C@@H](C)O)[C@@H](C)O)C(=O)O", "note": "[NPT2A] (X1-ELPPATPSPRLALPAHHNATRL-OH)", "values": [
      {"measurement": "binding affinity", "setting": "NHERF1 PDZ2 D183E", "value": "micromolar affinity"},
      {"measurement": "binding selectivity", "setting": "NHERF1 PDZ1 and PDZ2", "value": "binds only PDZ1"},
      {"measurement": "effect of His27Asn mutation on interaction", "setting": "NHERF1 PDZ1 H27N (1–120); FP and ITC", "value": "decrease the interaction with NPT2A"},
      {"measurement": "N (stoichiometry)", "setting": "NHERF1 PDZ1 H27N (1–120); ITC, 25°C, pH 7.5", "value": 0.61},
      {"measurement": "ΔH^o", "setting": "NHERF1 PDZ1 H27N (1–120); ITC, 25°C, pH 7.5", "value": "-7.5 ± 0.7", "unit": "kcal/mol"},
      {"measurement": "ΔG^o", "setting": "NHERF1 PDZ1 H27N (1–120); ITC, 25°C, pH 7.5, from Eq 3", "value": "-7.2 ± 0.7", "unit": "kcal/mol"},
      {"measurement": "ΔS^o", "setting": "NHERF1 PDZ1 H27N (1–120); ITC, 25°C, pH 7.5, from Eq 4", "value": "-0.86±0.08", "unit": "cal/mol/K"},
      {"measurement": "∆∆G^o", "setting": "NHERF1 PDZ1 H27N (1–120); ∆G^o H27N - ∆G^o WT, ITC", "value": "about 0.4 kcal/mol"},
      {"measurement": "∆∆H^o", "setting": "NHERF1 PDZ1 H27N (1–120); ∆H^o H27N - ∆H^o WT, ITC", "value": 0.7, "unit": "kcal/mol"},
      {"measurement": "∆∆S^o", "setting": "NHERF1 PDZ1 H27N (1–120); ∆S^o H27N - ∆S^o WT, ITC", "value": 1.3, "unit": "cal mol^-1 K^-1"},
      {"measurement": "binding affinity", "setting": "NHERF1 PDZ2 N167H/D183E", "value": "further enhancement of the binding affinity; also recorded: micromolar affinity"},
      {"measurement": "N (stoichiometry)", "setting": "[1]; 25°C, pH 7.5", "value": 0.60},
      {"measurement": "ΔH^o", "setting": "[1]; 25°C, pH 7.5", "value": "-5.8 ± 0.6", "unit": "kcal/mol"},
      {"measurement": "ΔG^o", "setting": "[1]; 25°C, pH 7.5, from Eq 3", "value": "-6.5 ± 0.6", "unit": "kcal/mol"},
      {"measurement": "ΔS^o", "setting": "[1]; 25°C, pH 7.5, from Eq 4", "value": "2.3±0.3", "unit": "cal/mol/K"},
      {"measurement": "∆∆G^o", "setting": "[1]; His27 by Asn and Glu43 by Asp, versus WT", "value": 1.1, "unit": "kcal/mol"},
      {"measurement": "effect of Glu43Asp mutation on interaction", "setting": "NHERF1 PDZ1 E43D (1–120); FP and ITC", "value": "decrease the interaction with NPT2A"},
      {"measurement": "∆∆H^o", "setting": "NHERF1 PDZ1 E43D (1–120); Glu43Asp PDZ1 minus WT, ITC", "value": 5.2, "unit": "kcal/mol"},
      {"measurement": "∆∆S^o", "setting": "NHERF1 PDZ1 E43D (1–120); Glu43Asp PDZ1 minus WT, ITC", "value": 14.8, "unit": "cal mol^-1 K^-1"},
      {"measurement": "N (stoichiometry)", "setting": "NHERF1 PDZ1 E43D (1–120); ITC, 25°C, pH 7.5", "value": 0.60},
      {"measurement": "ΔH^o", "setting": "NHERF1 PDZ1 E43D (1–120); ITC, 25°C, pH 7.5", "value": "-3.0 ± 0.3", "unit": "kcal/mol"},
      {"measurement": "ΔG^o", "setting": "NHERF1 PDZ1 E43D (1–120); ITC, 25°C, pH 7.5, from Eq 3", "value": "-6.8 ± 0.7", "unit": "kcal/mol"},
      {"measurement": "ΔS^o", "setting": "NHERF1 PDZ1 E43D (1–120); ITC, 25°C, pH 7.5, from Eq 4", "value": "12.7±1.0", "unit": "cal/mol/K"},
      {"measurement": "∆∆G^o", "setting": "NHERF1 PDZ1 E43D (1–120); ∆G^o E43D - ∆G^o WT, ITC", "value": 0.8, "unit": "kcal/mol"},
      {"measurement": "binding affinity at acidic pH", "setting": "NHERF1 PDZ1 (1–140)", "value": "significantly reduced compared to pH 7.4"},
      {"measurement": "N (stoichiometry)", "setting": "NHERF1 PDZ1 (1–120); pH 7.5", "value": 0.92},
      {"measurement": "ΔH^o", "setting": "NHERF1 PDZ1 (1–120); pH 7.5", "value": "-8.2 ± 0.8", "unit": "kcal/mol"},
      {"measurement": "ΔG^o", "setting": "NHERF1 PDZ1 (1–120); pH 7.5, from Eq 3", "value": "-7.6 ± 0.8", "unit": "kcal/mol"},
      {"measurement": "ΔS^o", "setting": "NHERF1 PDZ1 (1–120); pH 7.5, from Eq 4", "value": "-2.1±0.2", "unit": "cal/mol/K"}
    ]}
  ]
}
